Article PMC6429214, “Design, Synthesis and Biological Evaluation of Isoxazole-Based CK1 Inhibitors Modified with Chiral Pyrrolidine Scaffolds” (Molecules, 2019)

What was measured:
Test in all cases: 33PanQinase panel
Assay type in all cases: biochemical
CLK3 = target: T1, CLK3 (Homo sapiens, UniProt P49761); settings: CLK3, 1 µM; read-out: Residual Activity (%)
T1 construct: purchased ProQinase
Method: (§1) Figure 5 Dendrogram representation of the selectivity profile of 29d at a concentration of 1 μM in a panel of 320 wild-type kinases (ProQinase, Freiburg, Germany). The residual kinase activity was determined compared to DMSO control. Images were generated using TREEspot Software Tool, DISCOVERX CORPORATION 2010. […]
(§2) Table S2. Selectivity profile of compound 29d. The inhibitor has been screened at a concentration of 1 µM over a panel of 320 wild-type protein kinases by ProQinase GmbH (Freiburg, Germany) using an activity-based radiometric 33PanQinase® assay. Results are presented as percentage of residual kinase activity relative to […]
(§3) control. The final DMSO concentration was 1 % in each reaction-mix. Classification of protein kinase families refers to Manning et al. (Manning, G.; Whyte, D. B.; Martinez, R.; Hunter, T.; Sudarsanam, S. The Protein Kinase Complement of the Human Genome. Science 2002, 298, 1912–1934): AGC = containing PKA, PKG, PKC families; […] = containing Cdk, MAPK, GSK3, CLK families; STE = homologs of yeast sterile 7, sterile 11, sterile 20 kinases; TK = tyrosine kinase; TKL = tyrosine kinase-like.
(§4) Kinase name Kinase family Residual Activity (%)

CK1-gamma2 = target: T2, CK1-gamma2 (Homo sapiens, UniProt P78368); settings: CK1-gamma2, 1 µM; read-out: Residual Activity (%)
T2 construct: purchased ProQinase
Method: as §1, §2, §3, §4

AKT1 aa106-480 = target: T3, AKT1 aa106-480 (Homo sapiens, UniProt P31749); settings: AKT1 aa106-480, 1 µM; read-out: Residual Activity (%)
T3 construct: purchased ProQinase
Method: as §1, §2, §3, §4

ACV-R2A = target: T4, ACV-R2A (Homo sapiens, UniProt P27037); settings: read-out: Residual Activity (%)
T4 construct: purchased ProQinase
Method: as §1, §2, §3, §4

ERK2 = target: T5, ERK2 (Homo sapiens, UniProt P28482); settings: ERK2, 1 µM; read-out: Residual Activity (%)
T5 construct: purchased ProQinase
Method: as §1, §2, §3, §4

ERK5 = target: T6, ERK5 (Homo sapiens, UniProt Q13164); settings: ERK5, 1 µM; read-out: Residual Activity (%)
T6 construct: purchased ProQinase
Method: as §1, §2, §3, §4

PDGFR-beta = target: T7, PDGFR-beta (Homo sapiens, UniProt P09619); settings: read-out: Residual Activity (%)
T7 construct: purchased ProQinase
Method: as §1, §2, §3, §4

Aurora-B = target: T8, Aurora-B (Homo sapiens, UniProt Q96GD4); settings: read-out: Residual Activity (%)
T8 construct: purchased ProQinase
Method: as §1, §2, §3, §4

CAMK4 = target: T9, CAMK4 (Homo sapiens, UniProt Q16566); settings: CAMK4, 1 µM; read-out: Residual Activity (%)
T9 construct: purchased ProQinase
Method: as §1, §2, §3, §4

PRKD2 = target: T10, PRKD2 (Homo sapiens, UniProt Q9BZL6); settings: PRKD2, 1 µM; read-out: Residual Activity (%)
T10 construct: purchased ProQinase
Method: as §1, §2, §3, §4

PKC-mu = target: T11, PKC-mu (Homo sapiens, UniProt Q15139); settings: read-out: Residual Activity (%)
T11 construct: purchased ProQinase
Method: as §1, §2, §3, §4

JAK1 aa583-1154 wt = target: T12, JAK1 aa583-1154 wt (Homo sapiens, UniProt P23458); settings: read-out: Residual Activity (%)
T12 construct: purchased ProQinase
Method: as §1, §2, §3, §4

PAK4 = target: T13, PAK4 (Homo sapiens, UniProt O96013); settings: PAK4, 1 µM; read-out: Residual Activity (%)
T13 construct: purchased ProQinase
Method: as §1, §2, §3, §4

BRSK1 = target: T14, BRSK1 (Homo sapiens, UniProt Q8TDC3); settings: BRSK1, 1 µM; read-out: Residual Activity (%)
T14 construct: purchased ProQinase
Method: as §1, §2, §3, §4

BMPR1A = target: T15, BMPR1A (Homo sapiens, UniProt P36894); settings: read-out: Residual Activity (%)
T15 construct: purchased ProQinase
Method: as §1, §2, §3, §4

PHKG2 = target: T16, PHKG2 (Homo sapiens, UniProt P15735); settings: PHKG2, 1 µM; read-out: Residual Activity (%)
T16 construct: purchased ProQinase
Method: as §1, §2, §3, §4

CDK1/CycE1 = target: T17, CDK1/CycE1 (Homo sapiens, UniProt P06493); settings: CDK1/CycE1, 1 µM; read-out: Residual Activity (%)
T17 construct: purchased ProQinase
Method: as §1, §2, §3, §4

RET = target: T18, RET (Homo sapiens, UniProt P07949); settings: read-out: Residual Activity (%)
T18 construct: purchased ProQinase
Method: as §1, §2, §3, §4

MATK = target: T19, MATK (Homo sapiens, UniProt P42679); settings: read-out: Residual Activity (%)
T19 construct: purchased ProQinase
Method: as §1, §2, §3, §4

PKC-delta = target: T20, PKC-delta (Homo sapiens, UniProt Q05655); settings: read-out: Residual Activity (%)
T20 construct: purchased ProQinase
Method: as §1, §2, §3, §4

PAK3 = target: T21, PAK3 (Homo sapiens, UniProt O75914); settings: PAK3, 1 µM; read-out: Residual Activity (%)
T21 construct: purchased ProQinase
Method: as §1, §2, §3, §4

FGF-R1 = target: T22, FGF-R1 (Homo sapiens, UniProt P11362); settings: FGF-R1, 1 µM; read-out: Residual Activity (%)
T22 construct: purchased ProQinase
Method: as §1, §2, §3, §4

Aurora-C = target: T23, Aurora-C (Homo sapiens, UniProt Q9UQB9); settings: read-out: Residual Activity (%)
T23 construct: purchased ProQinase
Method: as §1, §2, §3, §4

MAP3K7/MAP3K7IP1 = target: T24, MAP3K7/MAP3K7IP1 (Homo sapiens, UniProt O43318); settings: MAP3K7/MAP3K7IP1, 1 µM; read-out: Residual Activity (%)
T24 construct: purchased ProQinase
Method: as §1, §2, §3, §4

JAK3 = target: T25, JAK3 (Homo sapiens, UniProt P52333); settings: JAK3, 1 µM; read-out: Residual Activity (%)
T25 construct: purchased ProQinase
Method: as §1, §2, §3, §4

IRAK1 = target: T26, IRAK1 (Homo sapiens, UniProt P51617); settings: IRAK1, 1 µM; read-out: Residual Activity (%)
T26 construct: purchased ProQinase
Method: as §1, §2, §3, §4

CDK2/CycE1 = target: T27, CDK2/CycE1 (Homo sapiens, UniProt P24941); settings: CDK2/CycE1, 1 µM; read-out: Residual Activity (%)
T27 construct: purchased ProQinase
Method: as §1, §2, §3, §4

CDK5/p35NCK = target: T28, CDK5/p35NCK (Homo sapiens, UniProt Q00535); settings: read-out: Residual Activity (%)
T28 construct: purchased ProQinase
Method: as §1, §2, §3, §4

GSG2 = target: T29, GSG2 (Homo sapiens, UniProt Q8TF76); settings: GSG2, 1 µM; read-out: Residual Activity (%)
T29 construct: purchased ProQinase
Method: as §1, §2, §3, §4

T29 sequence (Q8TF76 whole entry): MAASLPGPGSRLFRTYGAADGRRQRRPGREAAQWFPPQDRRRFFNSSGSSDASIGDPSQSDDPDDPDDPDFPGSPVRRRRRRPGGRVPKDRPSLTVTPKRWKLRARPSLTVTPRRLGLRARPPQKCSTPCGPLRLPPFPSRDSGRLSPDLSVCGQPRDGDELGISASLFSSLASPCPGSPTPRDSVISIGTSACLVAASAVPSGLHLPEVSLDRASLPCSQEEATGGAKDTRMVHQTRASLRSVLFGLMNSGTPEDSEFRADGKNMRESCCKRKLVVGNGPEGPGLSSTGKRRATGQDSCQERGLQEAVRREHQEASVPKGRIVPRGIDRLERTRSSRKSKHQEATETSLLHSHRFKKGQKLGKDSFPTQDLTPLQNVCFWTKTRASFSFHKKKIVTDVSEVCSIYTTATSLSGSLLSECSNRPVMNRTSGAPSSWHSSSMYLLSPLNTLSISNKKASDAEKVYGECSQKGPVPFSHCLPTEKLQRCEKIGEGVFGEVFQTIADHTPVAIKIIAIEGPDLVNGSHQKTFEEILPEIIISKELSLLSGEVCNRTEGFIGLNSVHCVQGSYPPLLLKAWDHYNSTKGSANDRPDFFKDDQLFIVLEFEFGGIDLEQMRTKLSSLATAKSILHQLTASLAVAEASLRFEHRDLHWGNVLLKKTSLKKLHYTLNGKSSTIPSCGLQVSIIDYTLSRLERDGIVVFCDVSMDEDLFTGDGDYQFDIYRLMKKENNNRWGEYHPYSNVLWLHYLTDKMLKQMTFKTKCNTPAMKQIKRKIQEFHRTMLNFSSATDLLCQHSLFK
T24 sequence (O43318 1-303 limits assumed): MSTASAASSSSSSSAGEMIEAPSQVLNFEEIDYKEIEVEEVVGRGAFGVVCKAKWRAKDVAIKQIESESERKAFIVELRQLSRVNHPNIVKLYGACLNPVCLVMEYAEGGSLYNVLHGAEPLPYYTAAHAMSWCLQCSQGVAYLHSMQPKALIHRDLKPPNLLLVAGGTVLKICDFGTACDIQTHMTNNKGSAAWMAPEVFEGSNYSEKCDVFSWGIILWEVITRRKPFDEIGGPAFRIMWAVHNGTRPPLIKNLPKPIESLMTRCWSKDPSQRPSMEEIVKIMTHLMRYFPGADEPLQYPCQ
T24 sequence (Q15750 437-504 partner limits assumed): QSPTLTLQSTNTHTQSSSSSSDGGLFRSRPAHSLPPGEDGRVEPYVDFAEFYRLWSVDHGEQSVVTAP
T15 sequence (P36894 24-532): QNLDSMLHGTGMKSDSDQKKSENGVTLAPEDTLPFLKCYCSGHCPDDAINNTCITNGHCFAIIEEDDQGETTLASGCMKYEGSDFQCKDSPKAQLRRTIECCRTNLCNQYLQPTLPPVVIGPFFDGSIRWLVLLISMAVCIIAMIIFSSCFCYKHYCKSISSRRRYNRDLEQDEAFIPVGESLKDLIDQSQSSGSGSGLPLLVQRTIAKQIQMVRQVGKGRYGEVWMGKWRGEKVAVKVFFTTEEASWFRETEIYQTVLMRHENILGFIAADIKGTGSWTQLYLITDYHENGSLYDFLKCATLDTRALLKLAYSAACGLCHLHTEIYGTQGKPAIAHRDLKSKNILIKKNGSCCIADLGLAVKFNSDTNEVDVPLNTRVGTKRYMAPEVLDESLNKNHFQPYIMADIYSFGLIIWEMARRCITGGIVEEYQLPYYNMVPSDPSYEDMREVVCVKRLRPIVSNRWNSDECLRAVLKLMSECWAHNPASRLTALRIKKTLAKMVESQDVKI
T22 sequence (P11362 22-822): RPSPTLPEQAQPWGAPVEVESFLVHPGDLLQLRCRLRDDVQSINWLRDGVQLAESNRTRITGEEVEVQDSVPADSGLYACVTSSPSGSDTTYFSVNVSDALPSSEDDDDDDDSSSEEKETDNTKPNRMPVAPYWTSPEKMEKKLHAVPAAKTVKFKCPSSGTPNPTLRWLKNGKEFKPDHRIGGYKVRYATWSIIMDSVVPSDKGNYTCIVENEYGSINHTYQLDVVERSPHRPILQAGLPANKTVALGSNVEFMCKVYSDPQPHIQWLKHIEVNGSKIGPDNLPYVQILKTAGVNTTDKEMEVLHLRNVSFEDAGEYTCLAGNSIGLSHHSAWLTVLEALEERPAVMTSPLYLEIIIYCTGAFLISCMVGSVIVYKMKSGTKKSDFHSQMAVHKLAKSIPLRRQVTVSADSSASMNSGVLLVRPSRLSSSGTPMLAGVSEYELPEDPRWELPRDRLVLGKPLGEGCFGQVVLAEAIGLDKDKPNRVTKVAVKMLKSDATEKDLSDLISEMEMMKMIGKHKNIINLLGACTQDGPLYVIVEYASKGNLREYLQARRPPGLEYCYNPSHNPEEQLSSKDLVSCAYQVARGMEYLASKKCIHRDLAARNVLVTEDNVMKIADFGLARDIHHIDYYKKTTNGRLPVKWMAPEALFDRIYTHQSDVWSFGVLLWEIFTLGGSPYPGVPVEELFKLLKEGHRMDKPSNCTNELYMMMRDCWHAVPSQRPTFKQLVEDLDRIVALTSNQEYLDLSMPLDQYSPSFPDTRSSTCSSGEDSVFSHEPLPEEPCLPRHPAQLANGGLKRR
T7 sequence (P09619 33-1106): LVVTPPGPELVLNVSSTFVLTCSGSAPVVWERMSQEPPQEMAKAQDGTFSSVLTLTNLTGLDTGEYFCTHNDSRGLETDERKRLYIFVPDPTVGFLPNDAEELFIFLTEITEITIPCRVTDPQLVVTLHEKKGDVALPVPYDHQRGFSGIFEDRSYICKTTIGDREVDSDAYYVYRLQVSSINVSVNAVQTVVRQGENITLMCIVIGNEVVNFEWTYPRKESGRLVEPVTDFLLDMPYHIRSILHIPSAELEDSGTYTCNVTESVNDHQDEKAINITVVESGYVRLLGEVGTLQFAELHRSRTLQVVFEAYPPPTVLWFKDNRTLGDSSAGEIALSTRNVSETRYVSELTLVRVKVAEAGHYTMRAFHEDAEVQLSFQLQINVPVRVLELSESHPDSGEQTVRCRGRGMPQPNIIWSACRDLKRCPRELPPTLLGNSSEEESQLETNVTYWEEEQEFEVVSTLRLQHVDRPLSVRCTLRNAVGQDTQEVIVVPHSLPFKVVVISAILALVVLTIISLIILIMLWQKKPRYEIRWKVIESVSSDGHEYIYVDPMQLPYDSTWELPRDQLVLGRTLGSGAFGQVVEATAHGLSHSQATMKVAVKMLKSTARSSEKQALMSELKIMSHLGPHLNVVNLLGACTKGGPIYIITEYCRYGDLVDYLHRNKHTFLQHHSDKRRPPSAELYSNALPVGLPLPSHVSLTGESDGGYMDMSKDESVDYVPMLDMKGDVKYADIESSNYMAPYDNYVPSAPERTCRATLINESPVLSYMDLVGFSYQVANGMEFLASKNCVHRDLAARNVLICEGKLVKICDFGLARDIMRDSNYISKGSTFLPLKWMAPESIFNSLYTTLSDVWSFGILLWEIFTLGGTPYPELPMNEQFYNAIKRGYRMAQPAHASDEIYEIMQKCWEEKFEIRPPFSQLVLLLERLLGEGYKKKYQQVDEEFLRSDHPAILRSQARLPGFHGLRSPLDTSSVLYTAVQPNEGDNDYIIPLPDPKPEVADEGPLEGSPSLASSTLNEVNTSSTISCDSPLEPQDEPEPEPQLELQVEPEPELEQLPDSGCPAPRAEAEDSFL
T20 sequence (Q05655 whole entry): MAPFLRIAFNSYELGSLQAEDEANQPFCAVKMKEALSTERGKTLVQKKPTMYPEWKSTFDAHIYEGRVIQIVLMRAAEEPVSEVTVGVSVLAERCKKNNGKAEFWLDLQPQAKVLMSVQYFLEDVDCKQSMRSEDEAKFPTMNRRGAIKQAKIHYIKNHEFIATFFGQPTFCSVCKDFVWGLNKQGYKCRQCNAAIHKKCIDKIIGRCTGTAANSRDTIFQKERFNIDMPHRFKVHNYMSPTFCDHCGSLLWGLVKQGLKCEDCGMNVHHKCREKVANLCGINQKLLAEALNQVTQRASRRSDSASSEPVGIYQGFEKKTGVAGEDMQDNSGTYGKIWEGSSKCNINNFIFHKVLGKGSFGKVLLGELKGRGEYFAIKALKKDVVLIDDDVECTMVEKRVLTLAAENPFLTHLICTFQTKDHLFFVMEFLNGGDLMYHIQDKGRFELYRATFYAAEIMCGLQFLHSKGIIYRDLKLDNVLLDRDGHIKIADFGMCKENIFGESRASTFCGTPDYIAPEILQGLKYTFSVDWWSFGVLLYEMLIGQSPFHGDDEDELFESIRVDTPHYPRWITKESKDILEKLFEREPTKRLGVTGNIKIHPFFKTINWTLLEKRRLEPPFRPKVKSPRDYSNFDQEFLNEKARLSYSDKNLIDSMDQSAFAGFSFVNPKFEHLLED
T6 sequence (Q13164 whole entry): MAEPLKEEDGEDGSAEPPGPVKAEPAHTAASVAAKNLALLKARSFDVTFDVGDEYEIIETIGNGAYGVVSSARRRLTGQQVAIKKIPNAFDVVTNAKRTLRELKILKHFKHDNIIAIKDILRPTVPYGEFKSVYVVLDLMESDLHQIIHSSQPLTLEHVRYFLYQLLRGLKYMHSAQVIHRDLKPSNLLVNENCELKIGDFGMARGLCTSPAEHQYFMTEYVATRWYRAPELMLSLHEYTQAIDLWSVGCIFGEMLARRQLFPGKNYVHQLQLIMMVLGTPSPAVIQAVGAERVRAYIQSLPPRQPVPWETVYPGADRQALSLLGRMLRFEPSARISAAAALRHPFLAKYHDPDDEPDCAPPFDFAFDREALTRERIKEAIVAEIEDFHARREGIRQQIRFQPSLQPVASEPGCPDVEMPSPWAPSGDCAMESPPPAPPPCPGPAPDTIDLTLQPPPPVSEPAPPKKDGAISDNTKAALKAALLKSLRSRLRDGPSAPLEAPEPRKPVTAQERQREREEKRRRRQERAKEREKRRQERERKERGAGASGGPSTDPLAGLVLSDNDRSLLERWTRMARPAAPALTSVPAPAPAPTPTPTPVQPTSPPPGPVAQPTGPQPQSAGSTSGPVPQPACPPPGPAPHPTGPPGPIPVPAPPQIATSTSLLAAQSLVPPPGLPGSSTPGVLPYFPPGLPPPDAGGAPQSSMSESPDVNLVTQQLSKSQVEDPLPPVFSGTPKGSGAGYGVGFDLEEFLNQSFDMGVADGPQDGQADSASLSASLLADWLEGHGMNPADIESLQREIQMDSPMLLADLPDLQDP

SMILES: COc1ccc(-c2cc(C(=O)Nc3cc(-c4c(-c5ccc(F)cc5)noc4C(C)C)ccn3)n(CC3NCC(O)C3O)c2)cc1 (centres unmarked) [29d]
- remaining activity at 1 µM (CLK3): 92%
- remaining activity at 1 µM (CK1-gamma2): 80%
- remaining activity at 1 µM (AKT1 aa106-480): 84%
- remaining activity at 1 µM (ACV-R2A): 125%
- remaining activity at 1 µM (ERK2): 104%
- remaining activity at 1 µM (ERK5): 93%
- remaining activity at 1 µM (PDGFR-beta): 91%
- remaining activity at 1 µM (Aurora-B): 96%
- remaining activity at 1 µM (CAMK4): 102%
- remaining activity at 1 µM (PRKD2): 110%
- remaining activity at 1 µM (PKC-mu): 94%
- remaining activity at 1 µM (JAK1 aa583-1154 wt): 104%
- remaining activity at 1 µM (PAK4): 92%
- remaining activity at 1 µM (BRSK1): 104%
- remaining activity at 1 µM (BMPR1A): 96%
- remaining activity at 1 µM (PHKG2): 93%
- remaining activity at 1 µM (CDK1/CycE1): 100%
- remaining activity at 1 µM (RET): 97%
- remaining activity at 1 µM (MATK): 167%
- remaining activity at 1 µM (PKC-delta): 100%
- remaining activity at 1 µM (PAK3): 81%
- remaining activity at 1 µM (FGF-R1): 138%
- remaining activity at 1 µM (Aurora-C): 97%
- remaining activity at 1 µM (MAP3K7/MAP3K7IP1): 95%
- remaining activity at 1 µM (JAK3): 81%
- remaining activity at 1 µM (IRAK1): 91%
- remaining activity at 1 µM (CDK2/CycE1): 93%
- remaining activity at 1 µM (CDK5/p35NCK): 100%
- remaining activity at 1 µM (GSG2): 91%
